Values quoted from earlier work, collected in patent US20120189739A1, “Naturally-Sweetened Reduced-Calorie Base Syrup Compositions and Compositions Sweetened Therewith” (IMPERIAL SUGAR COMPANY, priority 2010, published 2012).

Details: Prakash et al. 2008; Kinghorn et al. 1999

Row | SMILES | times sweeter than sucrose
1 | C=C1C[C@@]23CC[C@H]4[C@@](C)(CCC[C@@]4(C)C(=O)O[C@@H]4O[C@H](CO)[C@@H](O)[C@H](O)[C@H]4O)[C@@H]2CC[C@]1(O[C@@H]1O[C@H](CO)[C@@H](O)[C@H](O)[C@H]1O[C@@H]1O[C@H](CO)[C@@H](O)[C@H](O)[C@H]1O)C3 [stevioside] | about 200 times
2 | C=C1C[C@@]23CC[C@H]4[C@@](C)(CCC[C@@]4(C)C(=O)O[C@@H]4O[C@H](CO)[C@@H](O)[C@H](O)[C@H]4O)[C@@H]2CC[C@]1(O[C@@H]1O[C@H](CO)[C@@H](O)[C@H](O[C@@H]2O[C@H](CO)[C@@H](O)[C@H](O)[C@H]2O)[C@H]1O[C@@H]1O[C@H](CO)[C@@H](O)[C@H](O)[C@H]1O)C3 [rebaudioside A] | 200-300 times
